Data set [1] deals with E. coli ESBL 521/17. In words: microbe, parasite or virus in culture. In kind it is cell-based, Escherichia coli. As to the method: (§1) In this regard the test plates were preincubated for 1 h at 37 °C with 0.1% bovine serum albumin (BSA) in distilled water before use. Bacteria were grown overnight at 37 °C with shaking in 2.1% Müller–Hinton broth (MHB), and then a small aliquot was transferred into the fresh portion of the same medium for another 2–3 h on the day of the experiment to provide us with the log phase bacterial suspension. Concentration of bacterial cells in suspension was evaluated based on absorbance at 620 nm and diluted down to 1 × 10^6 CFU/mL with MHB. Equal volumes of the prepared bacterial suspension in MHB and two-fold serial dilutions of the antimicrobials in 10 mM sodium phosphate (Na-P) buffer (pH 7.4) with 0.1% BSA were mixed and incubated overnight at 37 °C. The lowest concentration where no bacterial growth was observed the next day under visual examination was considered the minimal inhibitory concentration. The test was repeated at least three times, and the final MIC value was established as a median result. Each experiment was conducted in triplicates. Terasaki microplates (10 µL end volume, V-shaped bottom; Sarstedt, Nümbrecht, Germany) were used.

The subject of data set [2] is A. baumannii 7226/16. Briefly: microbe, parasite or virus in culture. Type of data set: cell-based, Acinetobacter baumannii. As for the experimental part: as §1
Data set [3] concerns P. aeruginosa MDR 522/17. Briefly: microbe, parasite or virus in culture. Type of data set: cell-based, Pseudomonas aeruginosa. As to the method:
as §1

Data set [4] deals with K. pneumoniae ESBL 344/17. Briefly: microbe, parasite or virus in culture. Type of data set: cell-based, Klebsiella pneumoniae. As to the method: as §1
For data set [5], the system named is S. aureus 1399/17. In words: microbe, parasite or virus in culture. In kind it is cell-based, Staphylococcus aureus. As for the experimental part:
as §1

The subject of data set [6] is P. aeruginosa MDR 522/17. In words: Crystal violet assay of biofilm formation. In kind it is cell-based, Pseudomonas aeruginosa. As to conditions: median of 3 independent experiments; for MECBF partially inhibiting bacterial biofilms: minimal concentration with significant decrease vs intact control (Mann–Whitney, p < 0.05), 24 h, 37 °C, MHB; for Minimal FECI, AMP + CAPB, biofilm formation: combination with cocamidopropyl betaine; for Minimal FECI, AMP + CAPB, biofilm formation / Minimal FECI, AMP + DXD, biofilm formation / Minimal FECI, AMP + ETA, biofilm formation / Minimal FECI, AMP + PVG, biofilm formation / Minimal FECI, AMP + PTS, biofilm formation: sub-microbicidal concentrations; for Minimal FECI, AMP + DXD, biofilm formation: combination with dioxydin; for Minimal FECI, AMP + ETA, biofilm formation: combination with etidronic acid; for Minimal FECI, AMP + PVG, biofilm formation: combination with poviargolum; for Minimal FECI, AMP + PTS, biofilm formation: combination with prontosan. As to the method:
The impact of the tested antimicrobials and their combinations on the formation of biofilms was quantitated as per the crystal violet assay protocol published by Merritt et al.. Testing was performed in 96-well immunological plates with U-shaped bottoms. […] Experimental samples were quadruplicated, and control without antimicrobials was octuplicated.
Then, the liquid content of the test plates was discarded, and the plates were gently washed in still water from residual traces of unattached planktonic bacteria. Each well was supplied with 125 μL 0.1% aqueous solution of crystal violet dye for 10 min at room temperature to stain biofilm components left attached to the surface. After staining, the plates were washed with clear water once more to remove excessive dye and left to air-dry. To quantify the amount of the bound dye corresponding to the thickness of the formed biofilm, it was redissolved in 30% acetic acid, 200 μL of which was introduced into each well. After 15 min at room temperature, the content of the wells was mixed by repetitive pipetting to ensure complete dye extraction, and 125 μL of each sample was transferred well-by-well into 96-well clear flat-bottom plates for spectrophotometric examination. OD was measured at 580 nm. Final results were calculated as medians based on three independent experiments.
Analyzing the combined action of AMPs and antiseptics (AS) in sub-microbicidal concentrations toward biofilms, we adopted the same approach based on the calculation of fractional indices as the one we used while testing antimicrobial activity on planktonic bacteria. For combinations, the series of concentrations from [MECBF(AMP) + MECBF(AS)], [½MECBF(AMP) + ½MECBF(AS)] and down to [1/32 × MECBF(AMP) + 1/32 × MECBF(AS)] was analyzed. […] The minimal FECI > 4 was interpreted as antagonism, FECI ≤ 0.5 as synergy, 0.5 < FECI ≤ 1 as additivity, and 1 < FECI ≤ 4 as independent action.

The subject of data set [7] is human erythrocytes. In kind it is cell-based. As to the method: Hemolytic properties of the test substances and their combinations were assessed as previously described. Whole human blood was collected from healthy donors by venipuncture into sterile EDTA-covered vacuum tubes, diluted 10 times with ice-cold phosphate-buffered saline (PBS) containing 4mM EDTA for the start, and then washed out twice with still ice-cold but anticoagulant-free PBS by a 10 min long centrifugation at 300× g and 4 °C to remove plasma and anticoagulant altogether. […] Samples were incubated for 30 min at 37 °C and then supplied with 90 µL of ice-cold PBS to stop further hemolysis. Remaining RBCs or their debris were precipitated by 4 min of centrifugation at 10,000× g and room temperature, and 100 µL of the supernatants was transferred to a 96-well clear flat-bottom test plate to spectrophotometrically detect hemoglobin released from the damaged RBCs. OD was measured at 540 nm—one of the hemoglobin absorbance maxima. The samples with 6 µL of pure PBS (with no potentially hemolytic agents) were used as a 0% lysis reference point. Experimental samples were compared with 0% lysis control by the Mann–Whitney U-test (p < 0.05) to identify statistically significant hemolytic action. In case the exact level of effect was of interest, the samples with 6 µL of 5% v/v Triton X-100 in PBS were also prepared to additionally obtain a 100% lysis reference point and calculate the percentage of hemolysis in test samples as hemolysis (%) = (ODsample − OD0% lysis)/(OD100% lysis − OD0% lysis) × 100%. At least three independent repeats were performed.
The absence “–” or presence “+” of a statistically significant difference compared with the intact control once exposed to the action of combinations of AMPs and antiseptics in concentrations equal to ½ or ¼ of their individual MECH was evaluated in a series of three independent experiments.

Setting [8] is: antiseptics and surfactants, MHB, overnight 37 °C, median of 3–4 independent experiments, prontosan as polyhexanide.
The mark [9] stands for this setting: antiseptics and surfactants, 2.5% v/v RBC in PBS, 30 min, 37 °C, median of 3 independent experiments, prontosan as polyhexanide.

Read-outs that look alike come from different tables or passages of the source. Peptide text beside a SMILES is read from it.

With `CC(O)(P(=O)(O)O)P(=O)(O)O` [Etidronic acid], the MIC is 50 mg/mL in data set [1] (Escherichia coli, ESBL521/17, antiseptics and surfactants, MHB, overnight 37 °C, median of 3–4 independent experiments, prontosan as polyhexanide, read-out: MIC); 12.5 mg/mL in data set [2] (Acinetobacter baumannii, 7226/16, antiseptics and surfactants, MHB, overnight 37 °C, median of 3–4 independent experiments, prontosan as polyhexanide, read-out: MIC); 25 mg/mL in data set [3] (Pseudomonas aeruginosa, MDR522/17, antiseptics and surfactants, MHB, overnight 37 °C, median of 3–4 independent experiments, prontosan as polyhexanide, read-out: MIC); 50 mg/mL in data set [4] (Klebsiella pneumoniae, ESBL344/17, antiseptics and surfactants, MHB, overnight 37 °C, median of 3–4 independent experiments, prontosan as polyhexanide, read-out: MIC); 50 mg/mL in data set [5] (Staphylococcus aureus, 1399/17, antiseptics and surfactants, MHB, overnight 37 °C, median of 3–4 independent experiments, prontosan as polyhexanide, read-out: MIC). For the same compound, the “MECBF partially inhibiting bacterial biofilms” value in data set [6] is recorded as 1/32. The “MECH of hemolysis of human erythrocytes” value in data set [7] is listed as 5000 µg/mL.
For `[O-][n+]1c(CO)c(CO)[n+]([O-])c2ccccc21` [Dioxydin], the MIC in data set [1] (setting [8]) stood at 0.0156 mg/mL; in data set [2] (setting [8]) it was 0.0312 mg/mL; in data set [3] (setting [8]), 0.125 mg/mL; in data set [4] (setting [8]), 0.0156 mg/mL; in data set [5] (setting [8]), 0.5 mg/mL. In addition, the “MECBF partially inhibiting bacterial biofilms” value in data set [6] is 1/16. The MECH result in data set [7] was “higher than 0.5 mg/mL”. Besides, the “MECH of hemolysis of human erythrocytes” value in data set [7] (setting [9]) came to 500 µg/mL.
Consider Cocamidopropyl betaine, for which the MIC was >50,000 µg/mL in data set [1] (setting [8]); 0.0781 mg/mL in data set [2] (setting [8]); >50,000 µg/mL in data set [3] (setting [8]); 0.1562 mg/mL in data set [4] (setting [8]); >50,000 µg/mL in data set [5] (setting [8]). Moreover, the “MECBF partially inhibiting bacterial biofilms” value in data set [6] is given as 1/512. Further, in data set [7] (setting [9]), the “MECH of hemolysis of human erythrocytes” value was 1 µg/mL.
Turning to `CC(C)C[C@H](NC(=O)[C@H](CCCNC(=N)N)NC(=O)CNC(=O)CNC(=O)[C@@H](N)CCCNC(=N)N)C(=O)N[C@H]1CSSC[C@@H](C(=O)N[C@H](C(=O)NCC(=O)N[C@@H](CCCNC(=N)N)C(N)=O)C(C)C)NC(=O)[C@H](C(C)C)NC(=O)[C@@H]2CSSC[C@H](NC(=O)[C@H](Cc3ccc(O)cc3)NC1=O)C(=O)N[C@@H](CCCNC(=N)N)C(=O)N[C@@H](CCCNC(=N)N)C(=O)N[C@@H](CCCNC(=N)N)C(=O)N[C@@H](Cc1ccccc1)C(=O)N2` [PG-1, protegrin 1], the MIC in data set [1] (ESBL 521/17, 1 h) is recorded as 0.4 µM. The compound also displayed an MIC in data set [2] (7226/16, 1 h) of 6.2 µM. This compound also displayed an MIC in data set [3] (MDR 522/17, 1 h) of 6.2 µM. The MIC in data set [4] (ESBL 344/17, 1 h) amounted to 3.1 µM. Also, in data set [5] (1399/17, 1 h), the MIC turned out to be 0.4 µM. Further, in data set [6], the “Minimal FECI, AMP + CAPB, biofilm formation” value worked out at 0.12; the “Minimal FECI, AMP + DXD, biofilm formation” value turned out to be 1; the “Minimal FECI, AMP + ETA, biofilm formation” value is recorded as 2; the “Minimal FECI, AMP + PVG, biofilm formation” value stood at 0.25. In data set [6], the “Minimal FECI, AMP + PTS, biofilm formation” value was found to be 0.12 and the “MECBF partially inhibiting bacterial biofilms” value is 1/64. Further, the “MECH of hemolysis of human erythrocytes” value in data set [7] is 0.5 µM.
For `CC[C@H](C)[C@H](NC(=O)[C@H](CCCNC(=N)N)NC(=O)[C@@H](NC(=O)[C@@H]1CCCN1C(=O)[C@@H]1CCCN1C(=O)[C@H](CCCNC(=N)N)NC(=O)[C@H](CCCNC(=N)N)NC(=O)[C@H](Cc1ccccc1)NC(=O)[C@@H]1CCCN1C(=O)[C@H](CC(C)C)NC(=O)[C@H](CCCNC(=N)N)NC(=O)[C@H](Cc1ccccc1)NC(=O)[C@@H](N)CCCNC(=N)N)[C@@H](C)CC)C(=O)N[C@@H](Cc1c[nH]cn1)C(=O)N1CCC[C@H]1C(=O)N1CCC[C@H]1C(=O)N1CCC[C@H]1C(=O)N[C@@H](Cc1ccccc1)C(=O)N[C@@H](Cc1ccc(O)cc1)C(=O)N1CCC[C@H]1C(=O)N1CCC[C@H]1C(=O)N[C@@H](Cc1ccccc1)C(=O)N[C@@H](CCCNC(=N)N)C(=O)N[C@@H](CCCNC(=N)N)C(=O)N[C@@H](Cc1ccccc1)C(=O)N[C@@H](CC(C)C)C(=O)O` [ChBac3.4] (H-RFRLPFRRPPIRIHPPPFYPPFRRFL-OH; N-terminus assumed), the MIC in data set [1] (ESBL 521/17, 1 h) is reported as 3.1 µM. Also, in data set [2] (7226/16, 1 h), the MIC came to 6.2 µM. For the same compound, the MIC in data set [3] (MDR 522/17, 1 h) stood at 6.2 µM. The compound also yielded an MIC in data set [4] (ESBL 344/17, 1 h) of 3.1 µM. The MIC in data set [5] (1399/17, 1 h) is listed as 3.1 µM. In addition, in data set [6], the “Minimal FECI, AMP + CAPB, biofilm formation” value was found to be 0.5; the “Minimal FECI, AMP + DXD, biofilm formation” value turned out to be 1.12; the “Minimal FECI, AMP + ETA, biofilm formation” value is given as 2; the “Minimal FECI, AMP + PVG, biofilm formation” value stood at 1. Also, in data set [6], the “Minimal FECI, AMP + PTS, biofilm formation” value was 0.12 and the “MECBF partially inhibiting bacterial biofilms” value is given as 1/64.

For the origin of these results see PMC9863607, “Combined Use of Antimicrobial Peptides with Antiseptics against Multidrug-Resistant Bacteria: Pros and Cons” (Pharmaceutics, 2023).
